Measured values as given in US20260250318A1, “COMPOSITIONS AND METHODS FOR CROSSING THE BLOOD BRAIN BARRIER” (VOYAGER THERAPEUTICS, INC., priority 2022, published 2026).

Tests used:
Details in all cases: synthetic library passage 3, intravenous, relative to wild-type AAV9
brain [1] = assay: NGS fold enrichment of synthetic library (passage 3) in C57Bl/6 mice, first cross-species screen; type: in vivo
Summary of the method: (§1)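 Fold enrichment versus wild-type AAV9 was derived by NGS of RT-PCR-amplified RNA from nervous tissue, collected e.g. 28 days after IV dosing […]. The library (passage 3) was given to two NHPs aged 2-4 years and to 6-8-week BALB/c and C57Bl/6 mice (n=3 each).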

[2] = tested on: brain, spinal cord, and DRG of the NHPs; assay: NGS fold enrichment of synthetic library (passage 3) in NHPs, first cross-species screen; type: in vivo, cynomolgus macaques (Macaca fascicularis)
Summary of the method: as §1

brain [3] = assay: NGS fold enrichment of synthetic library (passage 3) in BALB/c mice, first cross-species screen; type: in vivo
Summary of the method: as §1

[4] = RNA from brain of C57Bl/6 mice, NGS
[5] = RNA from spinal cord of NHPs, NGS
[6] = RNA from brain of BALB/c mice, NGS

Row | Sequence | Fold enrichment over AAV9 in the brain of Mice (C57Bl/6) (brain [1]; RNA NGS, brain of C57Bl/6 mice) | Fold enrichment over AAV9 in the brain of NHPs ([2]; RNA NGS, brain of NHPs) | Fold enrichment over AAV9 in the spinal cord of NHPs ([2]; RNA NGS, spinal cord of NHPs) | Fold enrichment over AAV9 in the brain of Mice (BALB/c) (brain [3]; RNA NGS, brain of BALB/c mice) | Fold enrichment over AAV9 in the brain of Mice (C57Bl/6) (brain [1]; [4]) | Fold enrichment over AAV9 in the brain of NHPs ([2]; RNA from brain of NHPs, NGS) | Fold enrichment over AAV9 in the spinal cord of NHPs [2, 5] | Fold enrichment over AAV9 in the brain of Mice (BALB/c) (brain [3]; [6])
1 | GSGQNTGHLTMQQT | 1.026 fold | 1.114 fold | 0.078 fold | 0.595 fold |  |  |  | 
2 | GSGQNTGQHMMQQT | 1.147 fold | 1.090 fold | 1.058 fold | 0.917 fold |  |  |  | 
3 | GSGQNTRLQLGQQT | 0.181 fold | 1.452 fold | 1.747 fold | 0.234 fold |  |  |  | 
4 | GSGQNVSMQVNQQT |  |  |  |  | 0.357 fold | 1.341 fold | 0.000 fold | 0.251 fold
5 | GSGQNVSSVHRQQT | 0.383 fold | 1.045 fold | 0.712 fold | 0.271 fold |  |  |  | 
6 | GSGQNWPALKGQQT |  |  |  |  | 1.101 fold | 1.284 fold | 2.031 fold | 1.222 fold
7 | GSGQPRSTGINQQT | 0.650 fold | 1.061 fold | 0.693 fold | 0.542 fold |  |  |  | 
8 | GSGQPVLSISNQQT | 0.390 fold | 1.586 fold | 2.695 fold | 0.282 fold |  |  |  | 
9 | GSGQPYSTGLNQQT | 0.612 fold | 1.519 fold | 1.403 fold | 0.376 fold |  |  |  | 
10 | GSGQQLSITPNQQT | 0.845 fold | 1.979 fold | 10.280 fold | 0.201 fold |  |  |  | 
11 | GSGQREPKASNQQT |  |  |  |  | 0.399 fold | 1.214 fold | 2.793 fold | 0.520 fold
12 | GSGQRGSLTENQQT |  |  |  |  | 0.300 fold | 1.337 fold | 2.482 fold | 0.567 fold
13 | GSGQRLSQGVNHQT | 0.931 fold | 1.108 fold | 3.394 fold | 1.141 fold |  |  |  | 
14 | GSGQRMADIGNQQT |  |  |  |  | 0.352 fold | 1.233 fold | 2.539 fold | 0.427 fold
15 | GSGQRNPLLLNQQT | 0.662 fold | 1.693 fold | 0.144 fold | 0.740 fold |  |  |  | 
16 | GSGQRRELSQNQQT |  |  |  |  | 0.622 fold | 1.215 fold | 1.791 fold | 0.396 fold
17 | GSGQRSPVLPNQQT | 0.434 fold | 2.369 fold | 6.230 fold | 0.526 fold |  |  |  | 
18 | GSGQSFQMHTNQQT | 0.503 fold | 1.504 fold | 9.770 fold | 0.325 fold |  |  |  | 
19 | GSGQSHLHTGNQQT | 0.721 fold | 1.096 fold | 2.584 fold | 0.295 fold |  |  |  | 
20 | GSGQSHMATLNQQT | 1.173 fold | 2.657 fold | 0.724 fold | 0.504 fold |  |  |  | 

Row | Sequence | Fold enrichment over AAV9 in the brain of Mice (C57Bl/6) (brain [1]; RNA NGS, brain of C57Bl/6 mice) | Fold enrichment over AAV9 in the brain of NHPs ([2]; RNA NGS, brain of NHPs) | Fold enrichment over AAV9 in the spinal cord of NHPs ([2]; RNA NGS, spinal cord of NHPs) | Fold enrichment over AAV9 in the brain of Mice (BALB/c) (brain [3]; RNA NGS, brain of BALB/c mice) | Fold enrichment over AAV9 in the brain of Mice (C57Bl/6) (brain [1]; [4]) | Fold enrichment over AAV9 in the brain of NHPs ([2]; RNA from brain of NHPs, NGS) | Fold enrichment over AAV9 in the spinal cord of NHPs [2, 5] | Fold enrichment over AAV9 in the brain of Mice (BALB/c) (brain [3]; [6])
21 | GSGQSHRDVLNQQT | 0.138 fold | 1.872 fold | 15.082 fold | 0.280 fold |  |  |  | 
22 | GSGQSHRQPENQQT | 0.209 fold | 1.529 fold | 2.153 fold | 0.159 fold |  |  |  | 
23 | GSGQSHRSELNQQT | 0.668 fold | 1.585 fold | 11.974 fold | 0.256 fold |  |  |  | 
24 | GSGQSHSLATNQQT | 1.021 fold | 1.745 fold | 2.711 fold | 0.343 fold |  |  |  | 
25 | GSGQSHSLETNQQT |  |  |  |  | 0.520 fold | 1.188 fold | 1.319 fold | 0.363 fold
26 | GSGQSMTLHLNQQT | 0.721 fold | 1.827 fold | 0.991 fold | 0.248 fold |  |  |  | 
27 | GSGQSREISLNQQT | 0.594 fold | 1.088 fold | 6.954 fold | 0.282 fold |  |  |  | 
28 | GSGQSSGRLINKQT | 0.543 fold | 2.055 fold | 28.135 fold | 0.277 fold |  |  |  | 
29 | GSGQSSYGSGNQQT |  |  |  |  | 1.161 fold | 1.257 fold | 1.686 fold | 0.456 fold
30 | GSGQSTLKRINQQT |  |  |  |  | 0.534 fold | 1.168 fold | 13.442 fold | 1.184 fold
31 | GSGQSVQTVVNQQT | 0.582 fold | 3.057 fold | 5.441 fold | 0.240 fold |  |  |  | 
32 | GSGQSYDMRGNQQT |  |  |  |  | 0.588 fold | 1.248 fold | 0.567 fold | 0.368 fold
33 | GSGQSYQRDHNQQT | 0.779 fold | 1.859 fold | 8.013 fold | 0.323 fold |  |  |  | 
34 | GSGQSYTMTQNQQT | 0.297 fold | 2.136 fold | 6.755 fold | 0.231 fold |  |  |  | 
35 | GSGQTARNGINQQT |  |  |  |  | 1.002 fold | 1.192 fold | 2.030 fold | 0.472 fold
36 | GSGQTHGGQHNQQT | 1.448 fold | 2.125 fold | 12.251 fold | 1.098 fold |  |  |  | 
37 | GSGQTQVLKSNQQT | 1.599 fold | 1.640 fold | 3.031 fold | 0.975 fold |  |  |  | 
38 | GSGQTRMPLANQQT |  |  |  |  | 0.447 fold | 1.296 fold | 0.790 fold | 0.273 fold
39 | GSGQTRQMKDNQQT | 0.841 fold | 1.530 fold | 11.079 fold | 0.214 fold |  |  |  | 
40 | GSGQTSGLKQNQQT | 0.394 fold | 1.968 fold | 3.927 fold | 0.334 fold |  |  |  | 
